From patent US10065990B2, “Cyclic peptide compound, and preparation method, pharmaceutical composition and use thereof” (HANGZHOU GUANYU BIO-MEDICAL CO., LTD, priority 2013, dated 2018)

Assays:
[1] = test system: U937 (human leukemia cells); test: MTT cancer cell growth inhibition; assay type: cell-based; conditions: Homo sapiens, U-937, 72 h, MTT, 72 hours incubation; read-out: GI50 U93
Excerpt: (§1) MTT assay principle is yellow MTT can penetrate membrane into the cell, succinic dehydrogenase of the mitochondria in living cells can make exogenous MTT reduction of insoluble in water of blue-violet acicular formazan for crystallization and deposition in the cell, crystallization can be dissolved dimethyl sulfoxide (DMSO) solution, detected its absorbance at 490 nm/570 nm wavelength by enzyme-linked immunosorbent assay, which can reflect the number of cells.
(§2) Using DMEM+10% FBS culture medium or using 1640+10% FBS culture, respectively.
(§3) a) Cells were seeded in 96-well plates with the inoculation of 1500/well, 190 μl/hole, 37° C., 5% of CO2 incubator overnight;
(§4) b) The next day each well was added 10 μl of different drugs. The final concentration of drug was 10^−5˜10^−10M, three parallel holes; 37° C., 5% CO2 culture incubator for 72 hours incubation;
(§5) c) Per well was added 20 μl 5 mg/ml of MTT, 37° C., 5% CO2 culture incubator for 4 hours incubation;
(§6) d) The supernatant was discarded. Each well was added 100 μl of DMSO and oscillation;
(§7) e) 570 nm readings. Calculate cell viability. GI50 calculation based on the results.

[2] = test system: SGC-7901 (human gastric cancer cells); test: MTT cancer cell growth inhibition; assay type: cell-based; conditions: Homo sapiens, SGC-7901, 72 h, MTT, 72 hours incubation, SGC-7901 cells; read-out: GI50 SGC-7901
Excerpt: as §1, §2, §3, §4, §5, §6, §7

[3] = test system: HT1080 (human fibrosarcoma cells); test: MTT cancer cell growth inhibition; assay type: cell-based; conditions: Homo sapiens, HT-1080, 72 h, MTT, 72 hours incubation; read-out: GI50 HT1
Excerpt: as §1, §2, §3, §4, §5, §6, §7

[4] = test system: BGC-823 (human gastric cancer cells); test: MTT cancer cell growth inhibition; assay type: cell-based; conditions: Homo sapiens, BGC-823, 72 h, MTT, 72 hours incubation; read-out: GI50 BG
Excerpt: as §1, §2, §3, §4, §5, §6, §7

[5] = test system: H1975 (non-small cell lung adenocarcinoma); test: MTT cancer cell growth inhibition; assay type: cell-based; conditions: Homo sapiens, NCI-H1975, 72 h, MTT, 72 hours incubation, H1975 cells; read-out: GI50 H1975
Excerpt: as §1, §2, §3, §4, §5, §6, §7

[6] = test system: Bel-7402 (human hepatoma cells); test: MTT cancer cell growth inhibition; assay type: cell-based; conditions: Homo sapiens, Bel-7402, 72 h, MTT, 72 hours incubation, Bel-7402 cells; read-out: GI50 Bel-7402
Excerpt: as §1, §2, §3, §4, §5, §6, §7

[7] = test system: MOLT-4 (human acute lymphoblastic leukemia cells); test: MTT cancer cell growth inhibition; assay type: cell-based; conditions: Homo sapiens, MOLT-4, 72 h, MTT, 72 hours incubation; read-out: GI50 Mol
Excerpt: as §1, §2, §3, §4, §5, §6, §7

[8] = test system: Huh-7 (human hepatoma cells); test: MTT cancer cell growth inhibition; assay type: cell-based; conditions: Homo sapiens, Huh-7, 72 h, MTT, 72 hours incubation, Huh-7 cells; read-out: GI50 Huh-7
Excerpt: as §1, §2, §3, §4, §5, §6, §7

[9] = test system: KBM5-T315I (human chronic myelogenous leukemia); test: MTT cancer cell growth inhibition; assay type: cell-based; conditions: Homo sapiens, 72 h, MTT, 72 hours incubation, KBM5-T315I cells; read-out: GI50 KBM5-T315I
Excerpt: as §1, §2, §3, §4, §5, §6, §7

[10] = test system: Hela (human cervical cancer cells); test: MTT cancer cell growth inhibition; assay type: cell-based; conditions: Homo sapiens, HeLa, 72 h, MTT, 72 hours incubation; read-out: GI50 Hela
Excerpt: as §1, §2, §3, §4, §5, §6, §7

[11] = test system: K562 (human leukemia cells); test: MTT cancer cell growth inhibition; assay type: cell-based; conditions: Homo sapiens, K562, 72 h, MTT, 72 hours incubation, K562 cells; read-out: GI50 K562
Excerpt: as §1, §2, §3, §4, §5, §6, §7

[12] = test system: PANC-1 (Pac-1, human pancreatic cancer cells); test: MTT cancer cell growth inhibition; assay type: cell-based; conditions: Homo sapiens, PANC-1, 72 h, MTT, 72 hours incubation; read-out: GI50 PAN
Excerpt: as §1, §2, §3, §4, §5, §6, §7

[13] = test system: KBM-5 (human chronic myelogenous leukemia); test: MTT cancer cell growth inhibition; assay type: cell-based; conditions: Homo sapiens, KBM5, 72 h, MTT, 72 hours incubation, KBM-5 cells; read-out: GI50 KBM-5
Excerpt: as §1, §2, §3, §4, §5, §6, §7

[14] = test system: A549 (human lung cancer cells); test: MTT cancer cell growth inhibition; assay type: cell-based; conditions: Homo sapiens, A549, 72 h, MTT, 72 hours incubation; read-out: GI50 A54
Excerpt: as §1, §2, §3, §4, §5, §6, §7

[15] = test system: lncap (prostate cancer cells); test: MTT cancer cell growth inhibition; assay type: cell-based; conditions: Homo sapiens, LNCaP, 72 h, MTT, 72 hours incubation; read-out: GI50 lnca
Excerpt: as §1, §2, §3, §4, §5, §6, §7

[16] = test system: DU145 (human prostate cancer cells); test: MTT cancer cell growth inhibition; assay type: cell-based; conditions: Homo sapiens, DU-145, 72 h, MTT, 72 hours incubation; read-out: GI50 Du1
Excerpt: as §1, §2, §3, §4, §5, §6, §7

[17] = test system: HCC827 (human non-small cell lung cancer cells); test: MTT cancer cell growth inhibition; assay type: cell-based; conditions: Homo sapiens, HCC827, 72 h, MTT, 72 hours incubation, HCC827 cells; read-out: GI50 HCC827
Excerpt: as §1, §2, §3, §4, §5, §6, §7

[18] = test system: MCF-7 (human breast cancer cells); test: MTT cancer cell growth inhibition; assay type: cell-based; conditions: Homo sapiens, MCF7, 72 h, 72 hours incubation, read-out: GI50 MCF
Excerpt: as §1, §2, §3, §4, §5, §6, §7

[19] = test system: MDA-MB-231 (breast cancer cells); test: MTT cancer cell growth inhibition; assay type: cell-based; conditions: Homo sapiens, MDA-MB-231, 72 h, read-out: GI50 MDA-MB-231, MTT, 72 hours incubation, MDA-MB-231 cells
Excerpt: as §1, §2, §3, §4, §5, §6, §7

[20] = test system: N-87 (human gastric cancer cells); test: MTT cancer cell growth inhibition; assay type: cell-based; conditions: Homo sapiens, 72 h, MTT, 72 hours incubation, N-87 cells; read-out: GI50 N-87
Excerpt: as §1, §2, §3, §4, §5, §6, §7

[21] = biological target: T1, HDAC7 (Homo sapiens, UniProt Q8WUI4); test: HDAC biochemical activity measurement (fluorescent substrate deacetylation);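 further: fluorogenic deacetylation assay using acetyl-lysine substrate at 20 µM, enzyme and compound incubated 30 min at 37 °C, then developer added, fluorescence read at 360/460 nm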; conditions: HDAC7; 37° C. 30 minutes
T1 sequence (Q8WUI4 1-952): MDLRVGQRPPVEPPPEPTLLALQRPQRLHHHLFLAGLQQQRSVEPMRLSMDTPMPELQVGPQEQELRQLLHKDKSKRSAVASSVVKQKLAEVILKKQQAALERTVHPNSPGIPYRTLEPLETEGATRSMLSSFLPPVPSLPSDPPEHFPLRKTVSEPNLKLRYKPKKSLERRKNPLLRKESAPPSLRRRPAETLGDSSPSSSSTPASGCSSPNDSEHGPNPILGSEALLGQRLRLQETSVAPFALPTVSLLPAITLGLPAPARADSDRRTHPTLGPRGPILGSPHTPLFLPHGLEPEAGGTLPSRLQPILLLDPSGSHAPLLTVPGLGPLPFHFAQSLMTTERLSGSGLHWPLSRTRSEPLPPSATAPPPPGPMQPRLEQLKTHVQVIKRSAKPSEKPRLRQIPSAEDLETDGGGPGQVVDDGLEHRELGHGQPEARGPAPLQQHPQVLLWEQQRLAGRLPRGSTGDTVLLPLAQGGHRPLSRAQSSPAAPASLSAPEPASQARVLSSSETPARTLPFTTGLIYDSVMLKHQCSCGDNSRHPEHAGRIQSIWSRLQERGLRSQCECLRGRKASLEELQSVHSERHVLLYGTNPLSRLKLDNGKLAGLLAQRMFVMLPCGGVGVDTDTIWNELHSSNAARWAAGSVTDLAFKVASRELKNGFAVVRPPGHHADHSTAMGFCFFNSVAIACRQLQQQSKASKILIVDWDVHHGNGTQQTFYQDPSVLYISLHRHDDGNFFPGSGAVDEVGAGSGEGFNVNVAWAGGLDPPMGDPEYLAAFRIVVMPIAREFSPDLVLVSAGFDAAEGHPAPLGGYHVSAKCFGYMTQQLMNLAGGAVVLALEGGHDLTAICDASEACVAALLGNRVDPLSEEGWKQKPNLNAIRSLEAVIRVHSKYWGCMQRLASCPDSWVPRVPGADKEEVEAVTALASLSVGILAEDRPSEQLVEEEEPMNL

| Compound | GI50 [1] [nM] | GI50 [2] [nM] | GI50 [3] [nM] | GI50 [4] [nM] | GI50 [5] [nM] | GI50 [6] [nM] | GI50 [7] [nM] | GI50 [8] [nM] | GI50 [9] [nM] | GI50 [10] [nM] | GI50 [11] [nM] | GI50 [12] [nM] | GI50 [13] [nM] | GI50 [14] [nM] | GI50 [15] [nM] | GI50 [16] [nM] | GI50 [17] [nM] | GI50 [18] [nM] | GI50 [19] [nM] | GI50 [20] [nM] | other results |
| --- | --- | --- | --- | --- | --- | --- | --- | --- | --- | --- | --- | --- | --- | --- | --- | --- | --- | --- | --- | --- | --- |
| C/C=C1\NC(=O)c2cc(F)cc(n2)CNC(=O)C[C@@H](/C=C/CCS)OC(=O)[C@H](Cc2ccc(O)cc2)NC1=O [Compound 129] | 10 | 33 | 130 | 30 | 33 | 41 | 60 | 38 | 42 | 40 | 42 | 50 | 35 | 80 | 70 | 30 | 22 | 30 | 41 | 21 | IC50 HDAC7 [21]: no activity |
| C=C1NC(=O)c2nc(ccc2F)CNC(=O)C[C@@H](/C=C/CCS)OC(=O)[C@H](C)NC1=O [Compound 140] | 70 | 44 | 50 | 100 | 63 | 79 | 50 | 42 | 33 | 130 | 39 | 30 | 31 | 30 | 20 | 60 | 21 | 80 | 31 | 55 | IC50 HDAC7 [21]: no activity |
| CC(C)=C1NC(=O)c2cc(F)cc(n2)CNC(=O)C[C@@H](/C=C/CCS)OC(=O)[C@H](C(C)C)NC1=O [Compound 137] | 30 | 81 | 80 | 30 | 53 | 16 | 40 | 43 | 26 | 70 | 35 | 80 | 48 | 20 | 20 | 30 | 49 | 30 | 45 | 29 | IC50 HDAC7 [21]: no activity |
